The record followed here is US10160755B2 (Plexxikon Inc., priority 2015, dated 2018).

One assay concerns the target T1, FLT3-D835Y (Homo sapiens, UniProt P36888, D835Y).
T1 construct: purchased Invitrogen PV3967
T1 sequence (P36888 27-993 D835Y): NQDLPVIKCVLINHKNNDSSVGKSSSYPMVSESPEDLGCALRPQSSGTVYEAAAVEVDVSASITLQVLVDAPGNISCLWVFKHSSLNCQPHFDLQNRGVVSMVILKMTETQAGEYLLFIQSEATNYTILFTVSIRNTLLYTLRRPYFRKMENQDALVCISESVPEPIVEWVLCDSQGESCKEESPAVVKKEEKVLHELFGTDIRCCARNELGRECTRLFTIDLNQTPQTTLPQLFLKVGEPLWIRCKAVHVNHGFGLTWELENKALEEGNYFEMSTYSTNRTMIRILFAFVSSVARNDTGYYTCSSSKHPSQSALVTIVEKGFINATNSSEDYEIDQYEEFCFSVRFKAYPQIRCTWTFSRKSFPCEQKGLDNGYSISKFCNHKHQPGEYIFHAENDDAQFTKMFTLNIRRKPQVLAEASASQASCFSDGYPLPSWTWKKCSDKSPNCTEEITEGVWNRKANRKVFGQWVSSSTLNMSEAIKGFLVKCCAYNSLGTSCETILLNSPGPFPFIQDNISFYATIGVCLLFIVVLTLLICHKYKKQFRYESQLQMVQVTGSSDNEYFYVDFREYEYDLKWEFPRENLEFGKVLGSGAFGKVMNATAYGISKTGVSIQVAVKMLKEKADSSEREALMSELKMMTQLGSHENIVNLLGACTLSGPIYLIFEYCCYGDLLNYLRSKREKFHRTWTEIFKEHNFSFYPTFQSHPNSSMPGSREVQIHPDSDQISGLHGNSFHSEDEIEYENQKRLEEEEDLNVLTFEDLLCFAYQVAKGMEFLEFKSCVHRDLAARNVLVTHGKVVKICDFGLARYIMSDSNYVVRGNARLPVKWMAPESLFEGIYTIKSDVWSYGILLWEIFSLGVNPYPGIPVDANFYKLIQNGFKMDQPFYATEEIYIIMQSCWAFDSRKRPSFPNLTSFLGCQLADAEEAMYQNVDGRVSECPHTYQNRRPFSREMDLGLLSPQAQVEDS
The experiment in a line: FLT3-D835Y biochemical kinase assay (AlphaScreen). The gist of the method:
(§1)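 First, recombinant FLT3 variant phosphorylates a biotinylated poly(Glu4-Tyr) peptide (30 nM) with ATP at 10 μM (D835Y) or 100 μM (ITD). Streptavidin donor beads are then added for 20 min at room temperature, followed by anti-phosphotyrosine PY20 acceptor beads for 60 min. Signal at 580 nm gives IC50.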

The next assay concerns the target T2, FLT3-ITD (Homo sapiens, UniProt P36888).
T2 construct: FLT3-ITD; Invitrogen #PV6190
T2 sequence (P36888 1-993): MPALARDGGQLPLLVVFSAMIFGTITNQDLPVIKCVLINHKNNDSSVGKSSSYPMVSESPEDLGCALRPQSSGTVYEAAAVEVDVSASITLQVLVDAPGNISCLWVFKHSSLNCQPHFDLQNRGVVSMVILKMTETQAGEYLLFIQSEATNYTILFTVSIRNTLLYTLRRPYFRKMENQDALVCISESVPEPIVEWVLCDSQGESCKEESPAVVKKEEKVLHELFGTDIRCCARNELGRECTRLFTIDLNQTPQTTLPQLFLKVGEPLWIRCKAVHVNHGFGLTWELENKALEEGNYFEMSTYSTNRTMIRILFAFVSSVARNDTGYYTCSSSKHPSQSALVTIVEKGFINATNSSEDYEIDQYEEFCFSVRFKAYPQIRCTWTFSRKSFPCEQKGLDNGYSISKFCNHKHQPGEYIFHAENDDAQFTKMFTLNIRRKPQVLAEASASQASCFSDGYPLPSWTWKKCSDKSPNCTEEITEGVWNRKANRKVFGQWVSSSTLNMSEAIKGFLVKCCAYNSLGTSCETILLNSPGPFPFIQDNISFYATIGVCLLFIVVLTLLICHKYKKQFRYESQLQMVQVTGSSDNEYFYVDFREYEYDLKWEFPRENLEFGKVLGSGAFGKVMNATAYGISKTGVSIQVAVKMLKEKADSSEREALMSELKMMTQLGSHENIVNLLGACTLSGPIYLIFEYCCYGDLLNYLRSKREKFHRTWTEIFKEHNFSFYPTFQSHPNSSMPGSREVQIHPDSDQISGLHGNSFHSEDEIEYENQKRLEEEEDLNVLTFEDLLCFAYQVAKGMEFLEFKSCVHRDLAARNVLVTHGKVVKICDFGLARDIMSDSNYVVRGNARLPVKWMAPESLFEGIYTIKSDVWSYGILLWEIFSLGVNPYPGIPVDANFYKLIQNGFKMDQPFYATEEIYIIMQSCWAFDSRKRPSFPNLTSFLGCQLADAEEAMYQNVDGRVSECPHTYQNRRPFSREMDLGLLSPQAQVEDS
The experiment in a line: FLT3-ITD biochemical kinase assay (AlphaScreen). The gist of the method: as §1

A further assay concerns the target c-Kit (Homo sapiens, UniProt P10721). Nature of the assay: c-Kit biochemical assay (per US 2007/0032519). The protocol:
The following Table 2 provides data indicating FLT3 ITD, FLT3 D835Y, and KIT biochemical activity, and BaF3 FLT3 ITD/F69L cellular inhibitory activity for exemplary compounds described in this disclosure. In the table below, activity is provided as follows: +++=0.0001<IC50<1 μM; ++=1 μM<IC50<10 μM, +=10 μM<IC50<200 μM. Assays for the biochemical activity of c-Kit and FMS were conducted according to those assays described in US Patent Application Publication number US 2007/0032519, the disclosure of which is hereby incorporated by reference in its entirety.

Sequence of c-Kit (P10721 26-976): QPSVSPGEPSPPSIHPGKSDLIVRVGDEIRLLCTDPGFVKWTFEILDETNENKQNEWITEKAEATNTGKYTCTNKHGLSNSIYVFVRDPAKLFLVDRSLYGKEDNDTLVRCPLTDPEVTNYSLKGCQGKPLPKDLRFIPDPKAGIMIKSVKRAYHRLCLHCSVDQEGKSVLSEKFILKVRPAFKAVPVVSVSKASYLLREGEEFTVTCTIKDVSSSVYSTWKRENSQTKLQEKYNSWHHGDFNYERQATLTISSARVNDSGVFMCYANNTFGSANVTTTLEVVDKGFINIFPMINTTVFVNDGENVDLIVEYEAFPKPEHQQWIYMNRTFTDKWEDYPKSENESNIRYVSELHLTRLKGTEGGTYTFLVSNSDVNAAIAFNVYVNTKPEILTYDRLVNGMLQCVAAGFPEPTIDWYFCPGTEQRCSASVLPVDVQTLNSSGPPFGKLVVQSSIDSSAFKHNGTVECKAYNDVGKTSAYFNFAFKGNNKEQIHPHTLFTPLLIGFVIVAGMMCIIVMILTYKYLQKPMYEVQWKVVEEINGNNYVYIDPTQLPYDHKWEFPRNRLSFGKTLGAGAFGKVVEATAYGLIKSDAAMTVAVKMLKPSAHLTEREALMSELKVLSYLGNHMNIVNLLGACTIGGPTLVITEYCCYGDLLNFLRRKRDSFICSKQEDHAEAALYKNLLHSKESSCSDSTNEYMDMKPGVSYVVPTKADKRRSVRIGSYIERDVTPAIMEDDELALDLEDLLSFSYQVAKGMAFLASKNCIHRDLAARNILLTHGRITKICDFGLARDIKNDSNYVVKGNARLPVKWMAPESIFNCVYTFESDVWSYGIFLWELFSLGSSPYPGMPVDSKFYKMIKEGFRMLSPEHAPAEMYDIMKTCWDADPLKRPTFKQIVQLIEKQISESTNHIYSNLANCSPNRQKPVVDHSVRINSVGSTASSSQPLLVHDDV

As for `CN(C)c1ccc(-c2cnc3[nH]cc(-c4ccc5ncn(C(C)(C)C)c5c4)c3n2)cn1` [P-379, 5-[7-(3-tert-butylbenzimidazol-5-yl)-5H-pyrrolo[2,3-b]pyrazin-2-yl]-N,N-dimethyl-pyridin-2-amine], the IC50 against FLT3-D835Y, against FLT3-ITD and at c-Kit was 0.0001 to 1 µM throughout.

For `CS(=O)(=O)Nc1cccc(-c2cnc3[nH]cc(-c4ccc5[nH]cnc5c4)c3c2)c1` [P-013, N-[3-[3-(1H-benzimidazol-5-yl)-1H-pyrrolo[2,3-b]pyridin-5-yl]phenyl]methanesulfonamide], the figures for the IC50 against FLT3-D835Y, against FLT3-ITD and on c-Kit were 0.0001 to 1 µM, 0.0001 to 1 µM and 1 to 10 µM, respectively.

On to `COc1cnc2[nH]cc(-c3cnc4[nH]cnc4c3)c2c1` [P-052, 6-(5-methoxy-1H-pyrrolo[2,3-b]pyridin-3-yl)-3H-imidazo[4,5-b]pyridine], for which the IC50 on FLT3-D835Y was 0.0001 to 1 µM; against FLT3-ITD it was 0.0001 to 1 µM; against c-Kit, 1 to 10 µM.

As for `Cn1cnc2ccc(-c3c[nH]c4ncc(-c5cccc(NS(C)(=O)=O)c5)nc34)cc21` [P-038, N-[3-[7-(3-methylbenzimidazol-5-yl)-5H-pyrrolo[2,3-b]pyrazin-2-yl]phenyl]methanesulfonamide], the IC50 was in the range of 0.0001 to 1 µM against FLT3-D835Y, 0.0001 to 1 µM against FLT3-ITD and 10 to 200 µM on c-Kit.

For the compound `Cn1cc(-c2ccc(-c3cnc4[nH]cc(-c5ccc6ncn(C(C)(C)C)c6c5)c4n3)cc2)cn1` [P-306, 7-(3-tert-butylbenzimidazol-5-yl)-2-[4-(1-methylpyrazol-4-yl)phenyl]-5H-pyrrolo[2,3-b]pyrazine], the IC50 lay within 0.0001 to 1 µM at FLT3-D835Y, 0.0001 to 1 µM against FLT3-ITD and 1 to 10 µM against c-Kit.

Turning to `COc1cnc2[nH]cc(-c3ccc4ncn(CC(F)(F)F)c4c3)c2c1` [P-047, 5-methoxy-3-[3-(2,2,2-trifluoroethyl)benzimidazol-5-yl]-1H-pyrrolo[2,3-b]pyridine], the IC50 was in the range of 0.0001 to 1 µM against FLT3-D835Y, 0.0001 to 1 µM against FLT3-ITD and 1 to 10 µM at c-Kit.

For `CS(=O)(=O)Nc1cccc(-c2cnc3[nH]cc(-c4ccc5ncn(C6CCCC6)c5c4)c3c2)c1` [P-066, N-[3-[3-(3-cyclopentylbenzimidazol-5-yl)-1H-pyrrolo[2,3-b]pyridin-5-yl]phenyl]methanesulfonamide], the IC50 at FLT3-D835Y, against FLT3-ITD and against c-Kit was 0.0001 to 1 µM in each case.

On to `CS(=O)(=O)Nc1cccc(-c2cnc3[nH]cc(-c4ccc5[nH]cnc5c4)c3n2)c1` [P-011, N-[3-[7-(1H-benzimidazol-5-yl)-5H-pyrrolo[2,3-b]pyrazin-2-yl]phenyl]methanesulfonamide], for which the IC50 against FLT3-D835Y is 0.0001 to 1 µM; on FLT3-ITD, 0.0001 to 1 µM; against c-Kit, 1 to 10 µM.

`Cn1cnc2ccc(-c3c[nH]c4ncc(-c5cccc(N6CCCS6(=O)=O)c5)cc34)cc21` [P-093, 2-[3-[3-(3-methylbenzimidazol-5-yl)-1H-pyrrolo[2,3-b]pyridin-5-yl]phenyl]-1,2-thiazolidine 1,1-dioxide]: the values for the IC50 on FLT3-D835Y, on FLT3-ITD and on c-Kit were 0.0001 to 1 µM, 0.0001 to 1 µM and 1 to 10 µM, respectively.

On to `Cn1cnc2ccc(-c3c[nH]c4ncc(-c5cccc(C(F)(F)F)c5)cc34)cc21` [P-132, 1-methyl-6-[5-[3-(trifluoromethyl)phenyl]-1H-pyrrolo[2,3-b]pyridin-3-yl]benzimidazole], for which the half-inhibitory concentration (IC50) lay in the range of 0.0001 to 1 µM against FLT3-D835Y, 0.0001 to 1 µM against FLT3-ITD and 10 to 200 µM against c-Kit.

For `CN1CCOc2ccc(-c3c[nH]c4ncc(-c5cccc(NS(C)(=O)=O)c5)nc34)cc21` [P-065, N-[3-[7-(4-methyl-2,3-dihydro-1,4-benzoxazin-6-yl)-5H-pyrrolo[2,3-b]pyrazin-2-yl]phenyl]methanesulfonamide], the figures for the IC50 against FLT3-D835Y, against FLT3-ITD and on c-Kit were 0.0001 to 1 µM, 0.0001 to 1 µM and 10 to 200 µM, respectively.

With `O=C(C1CC1)N1CCC=C(c2cnc3[nH]cc(-c4ccc5[nH]cnc5c4)c3c2)C1` [P-033, [5-[3-(1H-benzimidazol-5-yl)-1H-pyrrolo[2,3-b]pyridin-5-yl]-3,6-dihydro-2H-pyridin-1-yl]-cyclopropyl-methanone], the half-inhibitory concentration (IC50) fell in the range of 1 to 10 µM on FLT3-D835Y, 0.0001 to 1 µM against FLT3-ITD and 10 to 200 µM against c-Kit.

Take `COc1cnc2[nH]cc(-c3ccc4ncn(CC5CC5)c4c3)c2c1` [P-062, 1-(cyclopropylmethyl)-6-(5-methoxy-1H-pyrrolo[2,3-b]pyridin-3-yl)benzimidazole]: the IC50 against FLT3-D835Y is 0.0001 to 1 µM; at FLT3-ITD, 0.0001 to 1 µM; against c-Kit, 10 to 200 µM.

For `Cc1cnc2[nH]cc(-c3ccc4nc[nH]c4c3)c2c1` [P-021, 3-(3H-benzimidazol-5-yl)-5-methyl-1H-pyrrolo[2,3-b]pyridine], the half-maximal inhibitory concentration (IC50) fell in the range of 0.0001 to 1 µM against FLT3-D835Y, 0.0001 to 1 µM against FLT3-ITD and 1 to 10 µM against c-Kit.

As for `Cn1cnc2ccc(-c3c[nH]c4ncc(-c5cccc(N6CCOCC6)c5)cc34)cc21` [P-095, 4-[3-[3-(3-methylbenzimidazol-5-yl)-1H-pyrrolo[2,3-b]pyridin-5-yl]phenyl]morpholine], the IC50 was 0.0001 to 1 µM at FLT3-D835Y, 0.0001 to 1 µM against FLT3-ITD and 1 to 10 µM against c-Kit.

`CC(C)(C)n1cnc2ccc(-c3c[nH]c4ncc(-c5ccc(C(=O)O)nc5)nc34)cc21` [P-376, 5-[7-(3-tert-butylbenzimidazol-5-yl)-5H-pyrrolo[2,3-b]pyrazin-2-yl]pyridine-2-carboxylic acid]: the IC50 at FLT3-D835Y, against FLT3-ITD and on c-Kit was 0.0001 to 1 µM throughout.

With `c1nc2cc(-c3c[nH]c4ncc(OCC5CC5)cc34)ccc2[nH]1` [P-007, 3-(1H-benzimidazol-5-yl)-5-(cyclopropylmethoxy)-1H-pyrrolo[2,3-b]pyridine], the figures for the concentration for half-maximal inhibition (IC50) at FLT3-D835Y, against FLT3-ITD and against c-Kit were 1 to 10 µM, 0.0001 to 1 µM and 1 to 10 µM, respectively.

Take `CNS(=O)(=O)c1cccc(-c2cnc3[nH]cc(-c4ccc5ncn(C)c5c4)c3c2)c1` [P-046, N-methyl-3-[3-(3-methylbenzimidazol-5-yl)-1H-pyrrolo[2,3-b]pyridin-5-yl]benzenesulfonamide]: the IC50 at FLT3-D835Y fell in the range of 0.0001 to 1 µM; against FLT3-ITD, 0.0001 to 1 µM; against c-Kit, 10 to 200 µM.

With `CC(C)n1cc(-c2cnc3[nH]cc(-c4ccc5ncn(C(C)(C)C)c5c4)c3n2)cn1` [P-382, 7-(3-tert-butylbenzimidazol-5-yl)-2-(1-isopropylpyrazol-4-yl)-5H-pyrrolo[2,3-b]pyrazine], the IC50 against FLT3-D835Y, against FLT3-ITD and against c-Kit was 0.0001 to 1 µM throughout.
